Test results from patent US5597798A, “Taxol and epidermal growth factor used to enhance treatment of ovarian cancer” (The Regents of the University of California, priority 1994, dated 1997).
Where two headings read alike, the source gives them in different places.

What was measured:
Assay in all cases: Colony forming assay, effect of EGF on cisplatin sensitivity
Type in all cases: cell-based, human
[1] = system: Du 145 prostate cancer cells
Description: (§1) The following cell lines were used in these studies: 2008 human ovarian carcinoma (Disaia, et al., Am. J. Obstet. Gynecol. 114:978 (1972)), COLO 316 human ovarian carcinoma (Woods et al., Cancer Res. 39:4449 (1979)), a DDP resistant variant 2008/C13*, derived from the parent 2008 cell line (Andrews, et al., Cancer Res. 45:6250 (1985)), A549 non-small cell lung cancer (Lieber et al., Int. J. Cancer 17:62 (1976)), NCI-H520 squamous cell lung cancer (Brower et al., Cancer Res. 46: 798 (1986)), NCI-H596 adenosquamous lung cancer (Banks-Schlegel et al., Cancer Res. 45: 1187 (1985)), UMC 31 small cell lung cancer cells (Graziano et al., Genes, Chromosomes and Cancer 3: 283 (1991)), GLC4 small cell lung cancer cells (Zijlstra et al., Cancer Res. 47: 1780 (1987)), UMCC10b head and neck cancer cells (Krause et al., Arch. Otolayngol. 107: 703 (1981)), 5637 bladder cancer cells (Fogh et al., J. Natl. Cancer Inst. 58: 209 (1977)), MIA PaCa-2 pancreatic cancer cells (Yunis et al., Int. J. Cancer 19:128 (1977)), Du 145 prostate cancer (Mickey Cancer Res. 37: 4049 (1977)) , COLO 205 colon cancer (Semple et al., Cancer Res. 38:1345 (1978)), KB-3-1 cervix cancer (Akiyama et al., Somat. Cell Mol. Genet. 11: 117 (1985)) , MCF-7 breast cancer (Soule et al., J. Natl. Cancer Inst. 51:1409 (1973)), A431 epidermoid carcinoma of the skin (Giard et al., J. Natl. Cancer Inst. 51: 1417 (1973)) and T-289 melanoma cells (Taetle et al., Cancer (Philadelphia) 60: 1836 (1987)). The human cell line 2008 was established from a patient with a serous cystadenocarcinoma of the ovary. The 8-fold DDP resistant cell line 2008/C13* was generated by 13 monthly selections with […], followed by chronic exposure to stepwise increasing concentrations of DDP, from 0.25 to 5 uM. A resistant subline, designated 2008/C13*5, was obtained by monthly selections with 1 μM DDP. The cells were grown on tissue culture dishes in a humidified incubator at 37° C. and 5% CO2 atmosphere. Cells were grown in either of the following types of media: RPMI 1640, RPMI 1640 plus HITES buffer, DMEM low glucose, or DMEM high glucose supplemented with 5% to 10% heat inactivated fetal calf serum and 2 mM glutamine.
(§2) Colony forming assays were used to assess the effect of each drug on the sensitivity of various tumor cell lines to cytotoxic agents (Andrews, et al., Chem.-Biol. Interact 65:51-58 (1988)). For assays performed on plastic tissue culture dishes, five ml of suspended cells were plated on 60-mm polystyrene tissue culture dishes (Corning Glass Works, Corning, N.Y.). Cells were allowed to attach overnight, then 10 μl of stock drug solution was added to triplicate plates at each drug concentration. Control plates received diluent alone. After 1 h, the drug-containing medium was aspirated and replaced with drug free medium. Plates were incubated in humidified 5% CO2 air, and after 14 days plates were fixed with methanol and stained with Giemsa. Colonies of over 60 cells were counted macroscopically.
(§3) The drug containing media was removed and cells were resuspended in 5 ml of complete medium containing 0.36% low melting-temperature agarose at 37° C. The cell suspension was mixed well and then aliquotted at 1 ml per dish in triplicate onto prepared 35 mm dishes containing a basement layer of solidified 1% agarose. The cell-containing layer was allowed to solidify at 4° C. for 10 minutes, and the dishes were incubated at 37° C. in humidified 5% CO2. Colonies greater than 125 um were counted after 5 days.
(§4) ^a Dose response curves were determined by colony forming assay. Cell

[2] = system: UMC 31 small cell lung cancer cells
Description: as §1, §2, §3, §4

[3] = system: COLO 205 colon cancer cells
Description: as §1, §2, §3, §4

[4] = system: MIA PaCa-2 pancreatic cancer cells
Description: as §1, §2, §3, §4

[5] = system: MCF-7 breast cancer cells
Description: as §1, §2, §3, §4

[6] = system: A549 non-small cell lung cancer cells
Description: as §1, §2, §3, §4

[7] = system: T-289 malignant melanoma cells
Description: as §1, §2, §3, §4

[8] = system: GLC 4 small cell lung cancer cells
Description: as §1, §2, §3, §4

[9] = system: KB-3-1 cervix cancer cells
Description: as §1, §2, §3, §4

[10] = system: UMSCC 10b head and neck cancer cells
Description: as §1, §2, §3, §4

[11] = ratio of IC50 in control and EGF-treated cells
[12] = read-out: IC50 in absence of EGF, cisplatin 1 h, no EGF
[13] = read-out: IC50 in presence of EGF, 10 nM EGF and cisplatin concurrently for 1 h

## N.N.[Cl][Pt][Cl] [cisplatin]
[1]; [11]
  Dose modifying factor: 1.5
[1]; [12]
  IC50: 8.52 µM
[1]; [13]
  IC50: 5.52 µM
[2]; [11]
  Dose modifying factor: 0.8
[2]; [12]
  IC50: 5.4 µM
[2]; [13]
  IC50: 6.86 µM
[3]; [11]
  Dose modifying factor: 1.7
[3]; [12]
  IC50: 27.6 µM
[3]; [13]
  IC50: 16.5 µM
[4]; [11]
  Dose modifying factor: 1.4
[4]; [12]
  IC50: 7.65 µM
[4]; [13]
  IC50: 5.53 µM
[5]; [11]
  Dose modifying factor: 1.0
[5]; [12]
  IC50: 3.82 µM
[5]; [13]
  IC50: 3.8 µM
[6]; [11]
  Dose modifying factor: 2.0
[6]; read-out: IC50 in absence and presence of EGF (single figure printed), 10 nM EGF and cisplatin concurrently for 1 h
  IC50: 14.5 µM
[7]; [11]
  Dose modifying factor: 0.8
[7]; [12]
  IC50: 2.02 µM
[7]; [13]
  IC50: 2.49 µM
[8]; [11]
  Dose modifying factor: 0.7
[8]; [12]
  IC50: 12.2 µM
[8]; [13]
  IC50: 18.2 µM
[9]; [11]
  Dose modifying factor: 2.0
[9]; [12]
  IC50: 9.71 µM
[9]; [13]
  IC50: 4.79 µM
[10]; [11]
  Dose modifying factor: 3.8
[10]; [12]
  IC50: 6.76 µM
[10]; [13]
  IC50: 1.76 µM
